Experimental data published in patent publication US20260022142A1, “MACROCYCLIC IMMUNOMODULATORS” (Bristol-Myers Squibb Company, priority 2022, published 2026).
Numbered stars: 1 amine (or outer) side, 2 acyl side, 3 side chain; on linkers, the order of the positions; unused ones are H or OH. Bridge positions count the residues as written; N and C are the ends. Square brackets hold non-standard residues; d marks the D form. Peptide text beside a SMILES is read from it. * marks the point of attachment. ξ: configuration not given here. Phe(3-CF3) = N[C@@H](Cc1cccc(C(F)(F)F)c1)C(=O)O; Tyr(3,5-F2) = N[C@@H](Cc1cc(F)c(O)c(F)c1)C(=O)O; Phe(4-COOH) = N[C@@H](Cc1ccc(C(=O)O)cc1)C(=O)O; Bip = N[C@@H](Cc1ccc(-c2ccccc2)cc1)C(=O)O; NH(CH2)14COOH = O=C(O)CCCCCCCCCCCCCCN*; Phe(3-Me) = Cc1cccc(C[C@H](N)C(=O)O)c1; γGlu = O=C(O)[C@H](CCC(=O)[*:2])N[*:1]; Val(3-OH) = CC(C)(O)[C@H](N)C(=O)O; hArg = N=C(N)NCCCC[C@H](N)C(=O)O; 4Pal = N[C@@H](Cc1ccncc1)C(=O)O; Cha = N[C@@H](CC1CCCCC1)C(=O)O; Cit = NC(=O)NCCC[C@H](N)C(=O)O; Ile(3ξ) = CCC(C)[C@H](N)C(=O)O; Thr(3ξ) = CC(O)[C@H](N)C(=O)O; PEG4 = NCCOCCOCCOCCOCCC(=O)O; dCba = N[C@H](CC1CCC1)C(=O)O; 12Ado = NCCCCCCCCCCCC(=O)O; hSer = N[C@@H](CCO)C(=O)O; Carboxymethyl = O=C(O)C*; Orn = NCCC[C@H](N)C(=O)O; Pra = C#CC[C@H](N)C(=O)O; Aun = NCCCCCCCCCCC(=O)O; Dab = NCC[C@H](N)C(=O)O; Dap = NC[C@H](N)C(=O)O; AEEA = NCCOCCOCC(=O)O

Each compound was assayed against T1, PD-1/PD-L1 interaction (PE-labeled human PD-L1-Ig binding to Jurkat cell line over-expressing human PD-1) (Homo sapiens, UniProt Q15116) (assay: Jurkat-PD-1 Cell Binding High-Content Screening Assay (CBA)). Settings: Jurkat cell line over-expressing human PD-1; PE-labeled PD-L1-Ig 20 nM final; read-out: Jurkat hPD1-PDL1 IC50.
T1 construct: expressed in transfected cells; host or cells: Jurkat
T1 sequence (Q15116 25-288): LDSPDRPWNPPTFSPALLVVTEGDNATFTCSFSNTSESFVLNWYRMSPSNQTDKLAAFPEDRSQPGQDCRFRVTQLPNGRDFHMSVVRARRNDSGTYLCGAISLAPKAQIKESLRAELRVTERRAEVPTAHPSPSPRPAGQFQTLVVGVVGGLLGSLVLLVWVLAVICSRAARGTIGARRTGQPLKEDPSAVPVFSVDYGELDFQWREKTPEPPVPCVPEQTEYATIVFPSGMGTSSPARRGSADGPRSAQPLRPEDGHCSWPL
Type: cell-based
Summary of the method: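 Read-out is high-content imaging of cell-bound phycoerythrin-tagged PD-L1-Ig on fixed, Hoechst-counterstained Jurkat cells that over-express human PD-1. Compound exposure lasts 2 h at 37° C before the labeled ligand (20 nM final) is added for a further hour.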

| IC50 [nM] | Compound |
| --- | --- |
| 17.8 | CCC(C)[C@@H]1NC(=O)[C@H](Cc2ccc(-c3ccccc3)cc2)NC(=O)[C@H](C(C)C)NC(=O)[C@H](Cc2c[nH]c3ccccc23)NC(=O)[C@H](CC(=O)O)NC(=O)[C@H](Cc2ccc(OCC(=O)O)cc2)NC(=O)[C@H](CCCCNC(=N)N)NC(=O)CSC[C@@H](C(=O)N[C@H](CO)C(=O)NCCOCCOCC(=O)NCCCCCCCCCCC(=O)O)NC(=O)[C@H](CO)NC(=O)[C@H](C(C)C)NC(=O)[C@H](CC2CCCCC2)NC(=O)[C@H](CCN)NC(=O)[C@@H](CC(C)C)NC(=O)[C@H](CCCN)NC1=O (stereo partly drawn) [Compound 3060] ({CH2CO}-[hArg]Y(Carboxymethyl)DWV[Bip][Ile(3ξ)][Orn][dL][Dab][Cha]VSC[dS][AEEA][Aun]-OH; thioether N-14) |
| 107 | CC(C)C[C@H]1NC(=O)[C@H](CCCN)NC(=O)[C@H](C(C)C)NC(=O)[C@H](Cc2ccc(-c3ccccc3)cc2)NC(=O)[C@H](C(C)C)NC(=O)[C@H](Cc2c[nH]c3ccccc23)NC(=O)[C@H](CC(=O)O)NC(=O)[C@H](CCCCNC(=N)N)NC(=O)[C@H](Cc2ccc(OCC(=O)O)cc2)NC(=O)CSC[C@@H](C(=O)NCCOCCOCC(=O)N[C@@H](CCCCN)C(=O)NCCCCCCCCCCCC(=O)O)NC(=O)[C@H](CCN)NC(=O)[C@H](C(C)C)NC(=O)[C@H](CC2CCCCC2)NC(=O)[C@H](Cc2cnc[nH]2)NC1=O [Compound 3158] ({CH2CO}-Y(Carboxymethyl)[hArg]DWV[Bip]V[Orn][dL]H[Cha]V[Dab]C[AEEA]K[12Ado]-OH; thioether N-14) |
| 7.5 | Cc1cccc(C[C@@H]2NC(=O)[C@H](CC(=O)O)NC(=O)[C@H](Cc3ccc(OCC(=O)O)cc3)NC(=O)[C@H](C(C)O)NC(=O)CSC[C@@H](C(=O)N[C@@H](CCN)C(=O)NCCCCCCCCCCC(=O)O)NC(=O)[C@H](CCO)NC(=O)[C@H](C(C)C)NC(=O)[C@H](CC3CCCCC3)NC(=O)[C@H](CCN)NC(=O)[C@@H](CC(C)C)NC(=O)[C@H](CCCN)NC(=O)[C@H](Cc3ccc(OCC(=O)O)cc3)NC(=O)[C@H](Cc3ccc(-c4ccccc4)cc3)NC(=O)[C@H](Cc3ccc(OCC(=O)O)cc3)NC2=O)c1 (stereo partly drawn) [Compound 3482] ({CH2CO}-[Thr(3ξ)]Y(Carboxymethyl)D[Phe(3-Me)]Y(Carboxymethyl)[Bip]Y(Carboxymethyl)[Orn][dL][Dab][Cha]V[hSer]C[Dab][Aun]-OH; thioether N-14) |
| 4.7 | Cc1cccc(C[C@@H]2NC(=O)[C@H](CC(=O)O)NC(=O)[C@H](Cc3ccc(OCC(=O)O)cc3)NC(=O)[C@H](CN)NC(=O)CSC[C@@H](C(=O)N[C@@H](CCN)C(=O)NCCOCCOCC(=O)NCCCCCCCCCCC(=O)O)NC(=O)[C@H](CCCN)NC(=O)[C@H](C(C)C)NC(=O)[C@H](CC3CCCCC3)NC(=O)[C@H](CCN)NC(=O)[C@@H](CC(C)C)NC(=O)[C@H](CCCN)NC(=O)[C@H](Cc3cc(F)c(O)c(F)c3)NC(=O)[C@H](Cc3ccc(-c4ccccc4)cc3)NC(=O)[C@H](Cc3ccc(O)cc3)NC2=O)c1 [Compound 2058] ({CH2CO}-[Dap]Y(Carboxymethyl)D[Phe(3-Me)]Y[Bip][Tyr(3,5-F2)][Orn][dL][Dab][Cha]V[Orn]C[Dab][AEEA][Aun]-OH; thioether N-14) |
| 25.3 | CC[C@H](C)[C@@H]1NC(=O)[C@H](Cc2ccc(-c3ccccc3)cc2)NC(=O)[C@H](C(C)C)NC(=O)[C@H](Cc2c[nH]c3ccccc23)NC(=O)[C@H](CC(=O)O)NC(=O)[C@H](Cc2ccc(OCC(=O)O)cc2)NC(=O)[C@H](Cc2ccncc2)NC(=O)CSC[C@@H](C(=O)N[C@@H](CCCNC(=N)N)C(=O)NCCOCCOCC(=O)NCCCCCCCCCCC(=O)O)NC(=O)[C@H]([C@@H](C)O)NC(=O)[C@H](C(C)C)NC(=O)[C@H](CC(C)C)NC(=O)[C@H](CCN)NC(=O)[C@@H](CC(C)C)NC(=O)[C@H](CCCN)NC1=O [Compound 1161] ({CH2CO}-[4Pal]Y(Carboxymethyl)DWV[Bip]I[Orn][dL][Dab]LVTCR[AEEA][Aun]-OH; thioether N-14) |
| 8.7 | Cc1cccc(C[C@@H]2NC(=O)[C@H](CC(=O)O)NC(=O)[C@H](Cc3ccc(OCC(=O)O)cc3)NC(=O)[C@H](CN)NC(=O)CSC[C@@H](C(=O)NCCOCCOCC(=O)N[C@@H](CCC(=O)O)C(=O)NCCCCCCCCCCC(=O)O)NC(=O)[C@H]([C@@H](C)O)NC(=O)[C@H](C(C)C)NC(=O)[C@H](CC3CCCCC3)NC(=O)[C@H](CCN)NC(=O)[C@@H](CC(C)C)NC(=O)[C@H](CCCN)NC(=O)[C@H](CCCNC(N)=O)NC(=O)[C@H](Cc3ccc(-c4ccccc4)cc3)NC(=O)[C@H](C(C)C)NC2=O)c1 [Compound 1033] ({CH2CO}-[Dap]Y(Carboxymethyl)D[Phe(3-Me)]V[Bip][Cit][Orn][dL][Dab][Cha]VTC[AEEA]E[Aun]-OH; thioether N-14) |
| 40.8 | Cc1cccc(C[C@@H]2NC(=O)[C@H](CC(=O)O)NC(=O)[C@H](Cc3ccc(OCC(=O)O)cc3)NC(=O)[C@H](CCCNC(=N)N)NC(=O)CSC[C@@H](C(=O)N[C@H](CC(N)=O)C(=O)NCCCCCCCCCCC(=O)O)NC(=O)[C@H](C(C)O)NC(=O)[C@H](C(C)O)NC(=O)[C@H](CC3CCCCC3)NC(=O)[C@H](CCN)NC(=O)[C@@H](CC(C)C)NC(=O)[C@H](CCCN)NC(=O)[C@H](CCCNC(N)=O)NC(=O)[C@H](Cc3ccc(-c4ccccc4)cc3)NC(=O)[C@H](C(C)C)NC2=O)c1 (stereo partly drawn) [Compound 3522] ({CH2CO}-RY(Carboxymethyl)D[Phe(3-Me)]V[Bip][Cit][Orn][dL][Dab][Cha][Thr(3ξ)][Thr(3ξ)]C[dN][Aun]-OH; thioether N-14) |
| 16.7 | C#CC[C@H](NC(=O)COCCOCCNC(=O)[C@H](CCCN)NC(=O)[C@@H]1CSCC(=O)N[C@@H](Cc2ccncc2)C(=O)N[C@@H](Cc2ccc(OCC(=O)O)cc2)C(=O)N[C@@H](CC(=O)O)C(=O)N[C@@H](Cc2c[nH]c3ccccc23)C(=O)N[C@@H](C(C)C)C(=O)N[C@@H](Cc2ccc(-c3ccccc3)cc2)C(=O)N[C@@H]([C@@H](C)CC)C(=O)N[C@@H](CCCN)C(=O)N[C@H](CC(C)C)C(=O)N[C@@H](CCN)C(=O)N[C@@H](CC(C)C)C(=O)N[C@@H](C(C)C)C(=O)N[C@@H]([C@@H](C)O)C(=O)N1)C(=O)N[C@@H](CCCCN)C(=O)NCCCCCCCCCCC(=O)O [Compound 1202] ({CH2CO}-[4Pal]Y(Carboxymethyl)DWV[Bip]I[Orn][dL][Dab]LVTC[Orn][AEEA][Pra]K[Aun]-OH; thioether N-14) |
| 16.2 | Cc1cccc(C[C@@H]2NC(=O)[C@H](CC(=O)O)NC(=O)[C@H](Cc3ccc(OCC(=O)O)cc3)NC(=O)[C@H](CN)NC(=O)CSC[C@@H](C(=O)N[C@@H](CCN)C(=O)NCCCCCCCCCCC(=O)O)NC(=O)[C@H](CCC(N)=O)NC(=O)[C@H](C(C)C)NC(=O)[C@H](CC3CCCCC3)NC(=O)[C@H](CCN)NC(=O)[C@@H](CC(C)C)NC(=O)[C@H](CCCN)NC(=O)[C@H](CCCNC(N)=O)NC(=O)[C@H](Cc3ccc(-c4ccccc4)cc3)NC(=O)[C@H](C(C)C)NC2=O)c1 [Compound 1244] ({CH2CO}-[Dap]Y(Carboxymethyl)D[Phe(3-Me)]V[Bip][Cit][Orn][dL][Dab][Cha]VQC[Dab][Aun]-OH; thioether N-14) |
| 15 | Cc1cccc(C[C@@H]2NC(=O)[C@H](CC(=O)O)NC(=O)[C@H](Cc3ccc(OCC(=O)O)cc3)NC(=O)[C@H](CN)NC(=O)CSC[C@@H](C(=O)N[C@@H](CCN)C(=O)NCCCCCCCCCCC(=O)O)NC(=O)[C@H](CCCCN)NC(=O)[C@H](C(C)C)NC(=O)[C@H](CC3CCCCC3)NC(=O)[C@H](CCN)NC(=O)[C@@H](CC3CCC3)NC(=O)[C@H](CCCN)NC(=O)[C@H](C(C)C)NC(=O)[C@H](Cc3ccc(-c4ccccc4)cc3)NC(=O)[C@H](C(C)C)NC2=O)c1 [Compound 2027] ({CH2CO}-[Dap]Y(Carboxymethyl)D[Phe(3-Me)]V[Bip]V[Orn][dCba][Dab][Cha]VKC[Dab][Aun]-OH; thioether N-14) |
| 10.9 | Cc1cccc(C[C@@H]2NC(=O)[C@H](CC(=O)O)NC(=O)[C@H](Cc3ccc(OCC(=O)O)cc3)NC(=O)[C@H](CCCCNC(=N)N)NC(=O)CSC[C@@H](C(=O)N[C@@H](CCN)C(=O)NCCCCCCCCCCC(=O)O)NC(=O)[C@H](CCCN)NC(=O)[C@H](C(C)C)NC(=O)[C@H](CC3CCCCC3)NC(=O)[C@H](CCN)NC(=O)[C@@H](CC(C)C)NC(=O)[C@H](CCCN)NC(=O)[C@H](C(C)C)NC(=O)[C@H](Cc3ccc(-c4ccccc4)cc3)NC(=O)[C@H](C(C)C)NC2=O)c1 [Compound 3259] ({CH2CO}-[hArg]Y(Carboxymethyl)D[Phe(3-Me)]V[Bip]V[Orn][dL][Dab][Cha]V[Orn]C[Dab][Aun]-OH; thioether N-14) |
| 125 | COC[C@@H]1NC(=O)CSC[C@@H](C(=O)N[C@@H](CCN)C(=O)NCCOCCOCCOCCOCCC(=O)N[C@@H](CCC(=O)N[C@@H](CO)C(=O)NCCCCCCCCCCCCCCC(=O)O)C(=O)O)NC(=O)[C@H](CO)NC(=O)[C@H](C(C)(C)O)NC(=O)[C@H](CC2CCCCC2)NC(=O)[C@H](CCN)NC(=O)[C@@H](CC(C)C)NC(=O)[C@H](CCCN)NC(=O)[C@H](Cc2ccc(C(=O)O)cc2)NC(=O)[C@H](Cc2ccc(-c3ccccc3)cc2)NC(=O)[C@H](Cc2ccc(C(=O)O)cc2)NC(=O)[C@H](Cc2cccc(C(F)(F)F)c2)NC(=O)[C@H](CC(=O)O)NC(=O)[C@H](Cc2ccc(C(=O)O)cc2)NC1=O [Compound 3908] ({CH2CO}-S(Me)[Phe(4-COOH)]D[Phe(3-CF3)][Phe(4-COOH)][Bip][Phe(4-COOH)][Orn][dL][Dab][Cha][Val(3-OH)]SC[Dab][PEG4][γGlu]S-{NH(CH2)14COOH}; thioether N-14) |
| 12.4 | CC[C@H](C)[C@@H]1NC(=O)[C@H](Cc2ccc(-c3ccccc3)cc2)NC(=O)[C@H](C(C)C)NC(=O)[C@H](Cc2c[nH]c3ccccc23)NC(=O)[C@H](CC(=O)O)NC(=O)[C@H](Cc2ccc(OCC(=O)O)cc2)NC(=O)[C@H](CN)NC(=O)CSC[C@@H](C(=O)N[C@@H](CCN)C(=O)NCCOCCOCC(=O)NCCCCCCCCCCC(=O)O)NC(=O)[C@H](CCCCN)NC(=O)[C@H](C(C)C)NC(=O)[C@H](CC2CCCCC2)NC(=O)[C@H](CCN)NC(=O)[C@@H](CC(C)C)NC(=O)[C@H](CCCN)NC1=O [Compound 2632] ({CH2CO}-[Dap]Y(Carboxymethyl)DWV[Bip]I[Orn][dL][Dab][Cha]VKC[Dab][AEEA][Aun]-OH; thioether N-14) |
